# Where “and” joins values, the source holds several entries; their conditions need not be identical. Equal entries are not always repeated. Where two headings read alike, the source gives them in different places.
# Experiments:
# M. tuberculosis H37Rv = test: MABA checkerboard synergy assay; type: cell-based, Mycobacterium tuberculosis; conditions: for MIC: Mycobacterium tuberculosis, H37RV, 336 h, checkerboard, drug alone, read-out: MIC against H37Rv, MIC alone
# [1] = tested on: M. tuberculosis Erdman in J774A.1 cells; test: macrophage assay, intracellular activity; type: cell-based, Mycobacterium tuberculosis; conditions: for Log10 CFU, intracellular Mtb Erdman: J774A.1 macrophages, 0.02 μM (Fig. 2 legend: 0.02 μg/mL), 7 days; for Fold(log) reduction: decrease of log10 CFU between D7 and treatment group, J774A.1, 0.02 μM (Fig. 2 legend: 0.02 μg/mL)
# Description: As described previously, J774A.1 cells were grown in 75-cm2 cell culture flasks in 10% FBS in Dulbecco’s modified Eagle’s medium (DMEM) until confluency. The cells were detached using a cell scraper, and then centrifuged at 200 g for 5 min at room temperature. The cells were incubated at 37 °C under 5% CO2 for 16 h after distributing into 24-well plates containing coverslips. M. tuberculosis Erdman (ATCC 35801) were diluted to a final concentration of 1 × 10^5 to 3 × 10^5 CFU/mL with DMEM after thawing and sonicating from frozen cultures. And 500 ul of the dilution was dispensed to each well of a new 24-well plate. Followed by, J774A.1 cells on coverslips were infected by incubation with M. tuberculosis Erdman at 37 °C for 2 h. Coverslips were then washed with HBSS and transferred to new 24-well plates. The Cultures were treated in triplicate with compounds at 0.02 μM containing DMEM and incubated at 37 °C under 5% CO2 for 16 h. At D 0 (for untreated controls) and after 7 days of incubation, macrophage cells were lysed by addition of 200 μL of 0.25% sodium dodecyl sulfate. The plates were incubated at 37 °C for 10 min, and 200 μL of DMEM was added. The lysate was sampled using a microtube and sonicated for 15 s. Then 1:1, 1:10, 1:100, and 1:1,000 dilutions were plated on 7H11 agar plates and CFU counts determined after 2 to 3 weeks of incubation at 37 °C.
# XDR-TB clinical isolates = test: microbe, parasite or virus in culture; type: cell-based, Mycobacterium tuberculosis; conditions: for MIC: Mycobacterium tuberculosis
# M. tuberculosis Erdman = test: in vivo acute M.tb Erdman infection mouse model; parameters: species or system Mycobacterium tuberculosis
# MDR-TB clinical isolates = test: microbe, parasite or virus in culture; type: cell-based; conditions: Mycobacterium tuberculosis
# [2] = tested on: Mycobacterium tuberculosis H37Rv; test: microplate Alamar blue assay (MABA), MIC; type: cell-based; conditions: replicating H37Rv
# [3] = tested on: Mycobacterium tuberculosis Erdman; test: microplate Alamar blue assay (MABA), MIC; type: cell-based
# Vero cells = test: cytotoxicity, MTT assay; type: cell-based; conditions: Chlorocebus sabaeus
# Description: (§1) The compounds were examined for toxicity (IC50) using MTT assay. Briefly, cells (3 ~ 5 × 10^3 cells/well) were seeded in a 96-well plate. After 24 h incubation, the cells were treated with various concentrations of drugs for 24, 48, 72 h, respectively. Columns one and two in the assay plates contained-media +0.1% DMSO for a negative control ,Then, 20 μl of a 5 mg/mL MTT solution was added to each well, and the plates were incubated for an additional 2~4 h at 37 °C. The medium was subsequently discarded, and DMSO 150 μL was added to dissolve the formazan. Oscillate 15 min, the OD 570 was measured using a Spectra MAX M5 microplate spectrophotometer (Molecular Devices, CA, USA), and the IC50 values were calculated.
# (§2) Compound MIC was conducted by ShangHai Chempartner Co., Ltd (Shanghai, China) using the microplate Alamar Blue assay (MABA) against Mycobacterium tuberculosis H37Ra (ATCC 25177). Cytotoxicity of tested compounds was assessed on Vero cells.
# Mycobacterium avium = test: microdilution plate assay, MIC; type: cell-based
# [4] = pharmacokinetic study in SD rats; type: in vivo; conditions: female, rat, 5 mg/kg
# Description: All animal experiments have been approved by the Institutional Animal Care and Treatment Committee of Sichuan University in China and were carried out in accordance with the approved guidelines. SPF female SD rats weighing 180–220 g were used in the pharmacokinetic study. The rats were fasted overnight before dosing. Every treatment group contain 3 rats. Rats were dosed with SKLB-TB1001 or BTZ043 suspension at 5 mg/kg (i.v. and p.o.). Compounds were dissolved in 5% DMSO/10% Solutol HS15 in saline for intravenous injection and suspended in 0.5% CMC for oral administration. Blood was collected from the jugular vein of each animal at the following times after administration of drugs: 0.083, 0.25, 0.5, 1, 2, 4, 6, 8 and 24 h after a single i.v. dosing; and 0.25, 0.5, 1, 2, 4, 6, 8 and 24 h after a single oral dosing. All blood samples were centrifuged at 3000 r/min for 10 min to obtain serum which was then stored at −20 °C. 150 μL of the serum was added to 500 μL of acetonitrile and the mixture was centrifuged at 13000 r/min for 10 min to remove protein. The supernatant was dried and dissolve in 100 μL of acetonitrile, the solution was centrifuged at 13000 r/min for 10 min. The supernatant was moved to a sample bottle for HPLC analysis. Total area under the concentration time curve (AUC), the elimination half-time (t1/2), the peak concentration (Cmax) and the time to reach peak concentration (Tmax) of samples were determined directly from the experimental data using WinNonlin V6.2.1.
# CYP2C19 = CYP2C19 (Homo sapiens, UniProt P33261); test: CYP inhibition; type: in vitro ADME; conditions: read-out: CYP inhibition IC50, CYP2C19
# Description: (§3) The In vitro ADME/T assays were conducted at WuXi AppTec Co. Ltd.(Shanghai). ClogP was calculated with ChemDraw Ultra 14.0. In the study of bi-directional permeability across MDR1-MDCKII cell monolayer, permeability was correlated with the apparent permeability coefficient Papp (cm/s), which was interpreted as follows: Low permeability( Papp ≤ 1.0×10^-6 cm/s), Moderate permeability(1.0×10^-6 < Papp < 5.5×10^-6 cm/s) or High permeability( Papp ≥ 5.5×10^-6 cm/s). ^aaqueous solubility at room temperature.
# CYP3A4 = CYP3A4 (Homo sapiens, UniProt P08684); test: CYP inhibition; type: in vitro ADME; conditions: read-out: CYP inhibition IC50, CYP3A4
# Description: as §3
# CYP2D6 = CYP2D6 (Homo sapiens, UniProt P10635); test: CYP inhibition; type: in vitro ADME; conditions: read-out: CYP inhibition IC50, CYP2D6
# Description: as §3
# CYP2C9 = CYP2C9 (Homo sapiens, UniProt P11712); test: CYP inhibition; type: in vitro ADME; conditions: read-out: CYP inhibition IC50, CYP2C9
# Description: as §3
# J774A.1 cells = test: cytotoxicity, MTT assay; type: cell-based; conditions: Mus musculus, J774.A1
# Description: as §1
# A549 cells = test: cytotoxicity, MTT assay; type: cell-based; conditions: Homo sapiens
# Description: as §1
# [5] = tested on: Mycobacterium tuberculosis; parameters: method as in PMID 19299584; conditions: cited from earlier work
# [6] = tested on: MDR1-MDCKII cell monolayer; test: bi-directional permeability across MDR1-MDCKII cell monolayer; type: in vitro ADME; conditions: dog, MDCK-MDR1
# Description: as §3
# plasma protein binding = type: in vitro ADME; conditions: mouse
# Description: as §3
# [7] = tested on: Mycobacterium tuberculosis H37Ra (ATCC 25177); test: microplate Alamar Blue assay (MABA), MIC, H37Ra; type: cell-based
# Description: as §2
# aqueous solubility = type: physicochemical
# Description: as §3
# [8] = read-out: MIC, XDR-TB strain X15
# [9] = read-out: MIC, XDR-TB strain X17
# [10] = clinical isolate, Table 2 prints no unit, test range 0.0156 to 64 μg/mL
# [11] = Vero, cytotoxicity, read-out: IC50 Vero
# Sequence of CYP2D6 (P10635 whole entry): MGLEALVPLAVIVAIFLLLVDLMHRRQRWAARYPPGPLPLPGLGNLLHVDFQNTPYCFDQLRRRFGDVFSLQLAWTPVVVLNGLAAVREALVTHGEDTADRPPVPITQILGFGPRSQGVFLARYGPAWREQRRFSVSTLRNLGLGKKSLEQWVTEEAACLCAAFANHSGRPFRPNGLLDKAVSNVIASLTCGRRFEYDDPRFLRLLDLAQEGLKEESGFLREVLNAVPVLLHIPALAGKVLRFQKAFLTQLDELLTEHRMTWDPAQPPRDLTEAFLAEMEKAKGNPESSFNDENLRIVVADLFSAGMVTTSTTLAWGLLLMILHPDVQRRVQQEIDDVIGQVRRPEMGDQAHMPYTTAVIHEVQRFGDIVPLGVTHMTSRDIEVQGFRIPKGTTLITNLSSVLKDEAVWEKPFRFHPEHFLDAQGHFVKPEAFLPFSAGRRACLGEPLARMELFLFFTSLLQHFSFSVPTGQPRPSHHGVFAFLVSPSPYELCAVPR
# Sequence of CYP2C9 (P11712 whole entry): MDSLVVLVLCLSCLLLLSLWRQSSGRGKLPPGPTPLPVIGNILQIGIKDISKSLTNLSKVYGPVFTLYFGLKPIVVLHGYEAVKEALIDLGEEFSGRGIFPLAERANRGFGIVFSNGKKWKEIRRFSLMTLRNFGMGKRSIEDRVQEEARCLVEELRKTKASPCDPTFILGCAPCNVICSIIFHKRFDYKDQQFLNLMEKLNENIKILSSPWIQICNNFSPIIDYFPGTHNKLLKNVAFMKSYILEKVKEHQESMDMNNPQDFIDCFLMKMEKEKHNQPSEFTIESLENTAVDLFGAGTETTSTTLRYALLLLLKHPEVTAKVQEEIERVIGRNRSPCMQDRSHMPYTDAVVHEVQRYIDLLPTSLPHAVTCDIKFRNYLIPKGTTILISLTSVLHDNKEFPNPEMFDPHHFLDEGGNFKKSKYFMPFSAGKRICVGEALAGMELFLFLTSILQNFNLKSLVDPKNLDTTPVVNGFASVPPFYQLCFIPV
# Sequence of CYP2C19 (P33261 whole entry): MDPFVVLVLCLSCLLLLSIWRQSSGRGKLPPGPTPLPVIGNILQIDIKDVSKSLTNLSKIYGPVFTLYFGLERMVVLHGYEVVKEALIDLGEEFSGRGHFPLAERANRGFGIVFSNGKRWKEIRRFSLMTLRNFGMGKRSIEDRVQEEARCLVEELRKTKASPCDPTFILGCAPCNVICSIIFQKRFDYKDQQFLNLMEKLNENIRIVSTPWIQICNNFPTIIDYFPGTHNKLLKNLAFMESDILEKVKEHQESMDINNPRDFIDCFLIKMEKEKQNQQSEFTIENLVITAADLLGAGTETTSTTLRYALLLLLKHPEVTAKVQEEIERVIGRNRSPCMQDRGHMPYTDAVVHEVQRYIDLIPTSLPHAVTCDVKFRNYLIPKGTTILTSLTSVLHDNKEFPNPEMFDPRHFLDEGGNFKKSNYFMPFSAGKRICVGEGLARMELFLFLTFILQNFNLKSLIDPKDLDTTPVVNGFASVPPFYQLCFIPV
# Sequence of CYP3A4 (P08684 whole entry): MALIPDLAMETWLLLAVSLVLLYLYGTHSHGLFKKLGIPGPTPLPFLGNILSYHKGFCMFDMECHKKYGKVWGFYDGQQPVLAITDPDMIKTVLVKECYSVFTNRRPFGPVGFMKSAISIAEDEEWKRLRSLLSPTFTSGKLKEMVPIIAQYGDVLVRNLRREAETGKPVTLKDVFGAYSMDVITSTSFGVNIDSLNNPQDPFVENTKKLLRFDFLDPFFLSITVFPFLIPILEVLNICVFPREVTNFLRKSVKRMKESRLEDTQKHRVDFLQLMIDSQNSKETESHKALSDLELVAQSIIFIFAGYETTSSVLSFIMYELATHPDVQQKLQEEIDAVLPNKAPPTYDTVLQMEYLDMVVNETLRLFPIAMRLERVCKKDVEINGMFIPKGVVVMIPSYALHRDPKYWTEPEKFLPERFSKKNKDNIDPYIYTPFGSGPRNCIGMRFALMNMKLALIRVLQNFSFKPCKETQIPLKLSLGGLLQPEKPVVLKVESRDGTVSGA
structure (smiles),measurement,setting,value
"COc1c(N2C[C@@H]3CCCN[C@@H]3C2)c(F)cc2c(=O)c(C(=O)O)cn(C3CC3)c12 [MOX, moxifloxacin]",MIC,M. tuberculosis H37Rv,0.037 µg/mL
same,"MIC against H37Rv, MIC in combo.",M. tuberculosis H37Rv; in combination with TB1001,21 ng/mL
"CO[C@H]1/C=C/O[C@@]2(C)Oc3c(C)c(O)c4c(O)c(c(/C=N/N5CCN(C)CC5)c(O)c4c3C2=O)NC(=O)/C(C)=C\C=C\[C@H](C)[C@H](O)[C@@H](C)[C@@H](O)[C@@H](C)[C@H](OC(C)=O)[C@@H]1C [RMP, rifampicin]","MIC against H37Rv, MIC in combo.",M. tuberculosis H37Rv; in combination with BTZ043,7 ng/mL
same,"MIC against H37Rv, MIC in combo.",M. tuberculosis H37Rv; in combination with TB1001,1 ng/mL
same,decrease of MIC,M. tuberculosis H37Rv; in the presence of SKLB-TB1001,6 fold
same,"Log10 CFU, intracellular Mtb Erdman",[1],6.44
same,Fold(log) reduction,[1],0.41 log
same,MIC,XDR-TB clinical isolates; [8],64 µg/mL
same,MIC,XDR-TB clinical isolates; [9],64 µg/mL
same,reduction of bacterial concentration in lungs compared to vehicle control group,"M. tuberculosis Erdman; BALB/c mice, 15 mg/kg oral",2.5 logs
same,"Log10 CFU (SD), bacterial burden in mouse lungs","M. tuberculosis Erdman; BALB/c mice, Day-36, 15 mg/kg oral daily from day 10",3.73 (3.19)
same,MIC,"MDR-TB clinical isolates; read-out: MIC, MDR-TB strain M3",64 µg/mL
same,MIC,"MDR-TB clinical isolates; read-out: MIC, MDR-TB strain M4",64 µg/mL
same,MIC,"MDR-TB clinical isolates; read-out: MIC, MDR-TB strain M8",64 µg/mL
same,MIC,"MDR-TB clinical isolates; read-out: MIC, MDR-TB strain M18",64 µg/mL
"C[C@H]1COc2c(N3CCN(C)CC3)c(F)cc3c(=O)c(C(=O)O)cn1c23 [LVFX, levo-ofloxacin]","MIC, XDR-TB strain X15",XDR-TB clinical isolates; [10],4 µg/mL
same,"MIC, XDR-TB strain X17",XDR-TB clinical isolates; [10],32 µg/mL
O=c1nc(N2CCN(CC3CCCCC3)CC2)sc2c([N+](=O)[O-])cc(C(F)(F)F)cc12 [PBTZ169],MIC,[2],0.02 µg/mL
same,MIC,[3],≤ 0.05 µg/mL
same,IC50,Vero cells; [11],> 100 µg/mL
C[C@H]1COC2(CCN(c3nc(=O)c4cc(C(F)(F)F)cc([N+](=O)[O-])c4s3)CC2)O1 [BTZ043],MIC,M. tuberculosis H37Rv,0.011 µg/mL
same,"MIC against H37Rv, MIC in combo.",M. tuberculosis H37Rv; in combination with RMP,8 ng/mL
same,MIC,[2],0.02 µg/mL
same,MIC,[3],< 0.05 µg/mL
same,MIC,Mycobacterium avium,32 µg/mL
same,"Log10 CFU, intracellular Mtb Erdman",[1],4.70
same,Fold(log) reduction,[1],2.2 log and 2.15 log
same,bioavailability,"[4]; SD, in vivo",29.5%
same,AUC,"[4]; SD, in vivo, po",899 ng·h/mL
same,Cmax,"[4]; SD, in vivo, po",543 ng/mL
same,Tmax,"[4]; SD, in vivo, po",15 min
same,half-life,"[4]; plasma, po, SD rats, terminal half-life for elimination",73.2 min
same,IC50,CYP2C19,> 10 µM
same,IC50,CYP3A4,> 10 µM
same,IC50,CYP2D6,> 10 µM
same,IC50,CYP2C9,> 10 µM
same,activity in the acute Mtb Erdman infection mouse model,M. tuberculosis Erdman; 150 mg/kg,not significantly active
same,"Log10 CFU (SD), bacterial burden in mouse lungs","M. tuberculosis Erdman; BALB/c mice, Day-36, 150 mg/kg oral daily from day 10",6.31 (5.85)
same,IC50,J774A.1 cells,32 µg/mL
same,IC50,A549 cells,25 µg/mL
same,MIC,[5],1 ng/mL
same,"Permeability (Mean Papp, MDR1) A to B",[6],9.02 10^-6 cm/s
same,"Permeability (Mean Papp, MDR1) B to A",[6],7.17 10^-6 cm/s
same,efflux ratio,[6],0.79
same,fraction unbound,plasma protein binding,< 0.01
same,IC50,Vero cells; [11],> 100 µg/mL
same,IC50,"Vero cells; cytotoxicity on Vero cells, read-out: IC50",> 20 µM
same,MIC,[7],< 0.1 µM
same,Solubility,aqueous solubility,<1
"CC1COc2c(N3CCN(C)CC3)c(F)cc3c(=O)c(C(=O)O)cn1c23 (stereo not drawn) [OFLX, ofloxacin]",MIC,XDR-TB clinical isolates; [8],8 µg/mL
same,MIC,XDR-TB clinical isolates; [9],32 µg/mL

# — PMC4942819 (Scientific Reports, 2016)
